Results from patent US12134610B2, “Somatostatin subtype-2 receptor (SST2R) targeted therapeutics and uses thereof” (priority 2022, dated 2024).
pEC50: −log10 of the molar value. Like-named read-outs stand apart in the source and are kept apart here. Non-standard residues stand in square brackets, D forms with d. Residues, ends and D or L forms follow the SMILES beside them. *: point of attachment. X1 = Cc1cc(F)cc(-c2cnc(NCCNC(=O)CCOCCC(=O)*)c(-c3nc4ccc(Cl)cc4[nH]3)c2N2CCC(N)CC2)c1; Dolaproine = CO[C@@H]([C@@H]1CCCN1)[C@@H](C)C(=O)O; Dil = CC[C@H](C)[C@H](NC)[C@@H](CC(=O)O)OC; X2 = C[C@@H](N*)[C@@H](O)c1ccccc1; NMeV = CN[C@H](C(=O)O)C(C)C

Key:
Type in all cases: cell-based
SST2 = target: T1, SST2 (Homo sapiens, UniProt P30874); assay: PathHunter CHO-K1 SST2 internalization assay; conditions: PathHunter CHO-K1 SST2, 90 min; for EC50: Internalization EC50 (nM); for pEC50: read-out: Internalization EC50
T1 construct: host or cells: PathHunter CHO-K1 SST2 cells
Protocol: SMDCs of the present invention were assessed in vitro using the human PathHunter CHO-K1 SST2 β-arrestin2 and PathHunter CHO-K1 SST2 Internalization Assays from DiscoverX. The CHO-K cells were seeded in 20 μLs of cell culture medium in a white-walled 384 well tissue culture-compatible plate at a density of 2500 cells/well. After a 48-hour incubation, cells were treated with 5 μLs of a 1:3 serially diluted SST2 SMDC prepared at 5× concentration with a final top compound concentration of 10 uM for 90 min at 37 C and in 5% CO2. 11 dilutions were tested as well as one treatment that was compound free. After incubation, the media containing treatments were discarded and 20 μL of a working solution of Beta-Glo from Promega Beta-Glo Assay System was added to each well. The plate was then incubated for 60 min at room temperature in the dark. Luminescence was measured using a Tecan plate reader. IC50 curves were generated using the nonlinear regression analysis (four-parameters) with GraphPad Prism 9. Results were the average of duplicates and are corrected for background.

[1] = target: T2, human somatostatin receptor subtype 2 (Homo sapiens, UniProt P30874); assay: Functional cAMP assay for SSTR2 agonists (HTRF) in CHO-K1 cells; conditions: CHO-K1 cells stably expressing human SST2, 20 min; for EC50: hSST2 cAMP Avg EC50 (nM); for pEC50: read-out: hSST2 cAMP Avg EC50
T2 construct: expressed in transfected cells
In short: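 Agonism scored as loss of NKH477 (1.6 μM)-driven cAMP, with IBMX present, after 20 min, 37° C. exposure of stably transfected CHO-K1 cells to compound dilutions (typically 0-10,000 nM). Lysates read by time-resolved FRET; cAMP interpolated from standard curve and EC50 derived.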

[2] = test system: NCI-H524 (ATCC) human small cell lung cancer cells
Protocol: SMDCs of the present invention were assessed in an in vitro assay evaluating the inhibition of cell proliferation. NCI-H524 (ATCC) human small cell lung cancer cells were plated in 96-well V-bottom plates (Costar) at a concentration of 5,000 cells/well. 24 h later, the cells were treated for 2 h with a SMDC. SMDC starting dose was 1 uM and two-fold serial dilutions were done for a total of 11 points. After 2 h of treatment, cells were spun down, and the drug-containing media was removed, and fresh complete media was added and used to resuspend the cells, which were spun again. After removal of the media, the cells were resuspended in complete medium and incubated for an additional 70 h. Cell proliferation was assessed using the CellTiter Glo Assay according to the standard protocol (Promega). Luminescence was measured using a TECAN plate reader. Percent proliferation inhibition was calculated using the following formula: % inhibition=(Luminescence Control−Luminescence Treatment)/Luminescence Control*100. IC50 curves were generated using the nonlinear regression analysis (four-parameter) with GraphPad Prism 9.

[3] = 2 h treatment, washout, additional 70 h, read-out: H524 EC50

T2 sequence (P30874 whole entry): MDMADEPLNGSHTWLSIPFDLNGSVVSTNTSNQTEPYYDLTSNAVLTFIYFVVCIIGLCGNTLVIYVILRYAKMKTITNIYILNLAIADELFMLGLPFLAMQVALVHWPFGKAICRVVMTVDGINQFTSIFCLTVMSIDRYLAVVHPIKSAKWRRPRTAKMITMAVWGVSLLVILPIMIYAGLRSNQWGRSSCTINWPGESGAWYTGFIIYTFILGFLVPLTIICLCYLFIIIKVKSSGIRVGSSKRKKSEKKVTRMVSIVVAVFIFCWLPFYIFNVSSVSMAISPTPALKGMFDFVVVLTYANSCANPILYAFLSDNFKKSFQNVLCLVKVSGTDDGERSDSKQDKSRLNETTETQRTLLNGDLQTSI
T1 sequence (P30874 whole entry): as above

CCc1c2c(nc3ccc(OC(=O)NCCOCCOCCOCCOCCC(=O)NCCNc4ncc(-c5cc(C)cc(F)c5)c(N5CCC(N)CC5)c4-c4nc5ccc(Cl)cc5[nH]4)cc13)-c1cc3c(c(=O)n1C2)COC(=O)[C@]3(O)CC [Compound 10, (19S)-10,19-diethyl-19-hydroxy-14,18-dioxo-17-oxa-3,13-diazapentacyclo[11.8.0.0^2,^11.0^4,^9.0^15,^20]henicosa-1(21),2,4(9),5,7,10,15(20)-heptaen-7-yl N-{14-[(2-{[4-(4-aminopiperidin-1-yl)-3-(6-chloro-1H-1,3-benzodiazol-2-yl)-5-(3-fluoro-5-methylphenyl)pyridin-2-yl]amino}ethyl)carbamoyl]-3,6,9,12-tetraoxatetradecan-1-yl}carbamate]
EC50 (SST2): 3.15 nM
EC50 [1]: 0.44 nM
pEC50 [2, 3]: 7.76

CC[C@H](C)[C@@H]([C@@H](CC(=O)N1CCC[C@H]1[C@H](OC)[C@@H](C)C(=O)N[C@@H](Cc1ccccc1)C(=O)O)OC)N(C)C(=O)[C@@H](NC(=O)[C@H](C(C)C)N(C)C(=O)CCOCCOCCOCCOCCC(=O)NCCNc1ncc(-c2cc(C)cc(F)c2)c(N2CCC(N)CC2)c1-c1nc2ccc(Cl)cc2[nH]1)C(C)C [Compound 11]
pEC50 (SST2): 7.87
pEC50 [1]: 10.07
pEC50 ([2]; 2 h): 6.98

COc1cc2cc(c1Cl)N(C)C(=O)CC(OC(=O)[C@@H](C)N(C)C(=O)CCSSCCNC(=O)CNC(=O)C[C@@H](N)C(=O)NCCNc1ncc(-c3cc(C)cc(F)c3)c(N3CCC(N)CC3)c1-c1nc3ccc(Cl)cc3[nH]1)[C@]1(C)OC1[C@@H](C)C1C[C@@](O)(NC(=O)O1)[C@H](OC)/C=C/C=C(\C)C2 (stereo partly drawn) [Compound 13]
pEC50 (SST2): 8.20
pEC50 [1]: 10.12
pEC50 ([2]; 2 h): 7.38

COc1cc2cc(c1Cl)N(C)C(=O)C[C@H](OC(=O)[C@@H](C)N(C)C(=O)CCSSCCOCCOCCOCCC(=O)NCCNc1ncc(-c3cc(C)cc(F)c3)c(N3CCC(N)CC3)c1-c1nc3ccc(Cl)cc3[nH]1)[C@]1(C)OC1[C@@H](C)C1C[C@@](O)(NC(=O)O1)[C@H](OC)/C=C/C=C(\C)C2 (stereo partly drawn) [Compound 19, (2S,5S,6S,16E,18E,20R,21S)-11-chloro-21-hydroxy-12,20-dimethoxy-2,5,9,16-tetramethyl-8,23-dioxo-4,24-dioxa-9,22-diazatetracyclo[19.3.1.1^10,14.0^3,5]hexacosa-10,12,14(26),16,18-pentaen-6-yl (2R)-2-{1-[(2-{[4-(4-aminopiperidin-1-yl)-3-(6-chloro-1H-1,3-benzodiazol-2-yl)-5-(3-fluoro-5-methylphenyl)pyridin-2-yl]amino}ethyl)carbamoyl]-N-methyl-3,6,9-trioxa-12,13-dithiahexadecan-16-amido}propanoate]
pEC50 (SST2): 8.15
pEC50 [1]: 9.36
pEC50 ([2]; 2 h): 7.70

COc1cc2cc(c1Cl)N(C)C(=O)CC(OC(=O)[C@@H](C)N(C)C(=O)CCSSCCC(=O)NCCNc1ncc(-c3cc(C)cc(F)c3)c(N3CCC(N)CC3)c1-c1nc3ccc(Cl)cc3[nH]1)[C@]1(C)OC1[C@@H](C)C1C[C@@](O)(NC(=O)O1)[C@H](OC)/C=C/C=C(\C)C2 (stereo partly drawn) [Compound 20, (2S,5S,6S,16E,18E,20R,21S)-11-chloro-21-hydroxy-12,20-dimethoxy-2,5,9,16-tetramethyl-8,23-dioxo-4,24-dioxa-9,22-diazatetracyclo[19.3.1.1^10,^14.0^3,^5]hexacosa-10,12,14(26),16,18-pentaen-6-yl (2R)-2-[3-({2-[(2-{[4-(4-aminopiperidin-1-yl)-3-(6-chloro-1H-1,3-benzodiazol-2-yl)-5-(3-fluoro-5-methylphenyl)pyridin-2-yl]amino}ethyl)-carbamoyl]ethyl}disulfanyl)-N-methylpropanamido]propanoate]
pEC50 (SST2): 8.20
pEC50 [1]: 9.57
pEC50 ([2]; 2 h): 7.50

COc1cc2cc(c1Cl)N(C)C(=O)CC(OC(=O)[C@@H](C)N(C)C(=O)CCSSCCOCCOCCOCCOCCC(=O)NCCNc1ncc(-c3cc(C)cc(F)c3)c(N3CCC(N)CC3)c1-c1nc3ccc(Cl)cc3[nH]1)[C@]1(C)OC1[C@@H](C)C1C[C@@](O)(NC(=O)O1)[C@H](OC)/C=C/C=C(\C)C2 (stereo partly drawn) [Compound 21]
pEC50 (SST2): 7.76
pEC50 [1]: 9.39
pEC50 ([2]; 2 h): 7.65

COc1cc2cc(c1Cl)N(C)C(=O)CC(OC(=O)[C@@H](C)N(C)C(=O)CCSSCCOCCOCCOCCOCCOCCOCCOCCOCCC(=O)NCCNc1ncc(-c3cc(C)cc(F)c3)c(N3CCC(N)CC3)c1-c1nc3ccc(Cl)cc3[nH]1)[C@]1(C)OC1[C@@H](C)C1C[C@@](O)(NC(=O)O1)[C@H](OC)/C=C/C=C(\C)C2 (stereo partly drawn) [Compound 22]
pEC50 (SST2): 7.59
pEC50 [1]: 9.44
pEC50 ([2]; 2 h): 7.57

COc1cc2cc(c1Cl)N(C)C(=O)CC(OC(=O)[C@@H](C)N(C)C(=O)CCSSCCC(=O)NCCNc1ncc(-c3cc(C)cc(F)c3)c(N3CCC(N)CC3)c1-c1nc3ccc(C(N)=O)cc3[nH]1)[C@]1(C)OC1[C@@H](C)C1C[C@@](O)(NC(=O)O1)[C@H](OC)/C=C/C=C(\C)C2 (stereo partly drawn) [Compound 23, (16E,18E)-11-chloro-21-hydroxy-12,20-dimethoxy-2,5,9,16-tetramethyl-8,23-dioxo-4,24-dioxa-9,22-diazatetracyclo[19.3.1.1^10,^14.0^3,^5]hexacosa-10,12,14(26),16,18-pentaen-6-yl 2-[3-({2-[(2-{[4-(4-aminopiperidin-1-yl)-3-(6-carbamoyl-1H-1,3-benzodiazol-2-yl)-5-(3-fluoro-5-methylphenyl)pyridin-2-yl]amino}ethyl)carbamoyl]ethyl}disulfanyl)-N-methylpropanamido]propanoate]
pEC50 (SST2): 6.61
pEC50 [1]: 9.18
pEC50 ([2]; 2 h): 6.88

Cc1cc(F)cc(-c2cnc(NCCNC(=O)CCOCCC(=O)NCCNC(=O)c3c(C)[nH]c(/C=C4\C(=O)Nc5ccc(F)cc54)c3C)c(-c3nc4ccc(Cl)cc4[nH]3)c2N2CCC(N)CC2)c1 [Compound 29, N-(2-{[4-(4-aminopiperidin-1-yl)-3-(6-chloro-1H-1,3-benzodiazol-2-yl)-5-(3-fluoro-5-methylphenyl)pyridin-2-yl]amino}ethyl)-3-[2-({2-[(5-{[(3Z)-5-fluoro-2-oxo-2,3-dihydro-1H-indol-3-ylidene]methyl}-2,4-dimethyl-1H-pyrrol-3-yl)formamido]ethyl}carbamoyl)ethoxy]propenamide]
pEC50 (SST2): 8.66
pEC50 [1]: 10.19
pEC50 ([2]; 2 h): < 5.00

CC[C@H](C)[C@@H]([C@@H](CC(=O)N1CCC[C@H]1[C@H](OC)[C@@H](C)C(=O)N[C@H](C)[C@@H](O)c1ccccc1)OC)N(C)C(=O)[C@@H](NC(=O)[C@H](C(C)C)N(C)C(=O)OCc1ccc(NC(=O)[C@H](CCCNC(N)=O)NC(=O)[C@@H](NC(=O)CCOCCOCCOCCOCCC(=O)NCCNc2ncc(-c3cc(C)cc(F)c3)c(N3CCC(O)CC3)c2-c2nc3ccc(Cl)cc3[nH]2)C(C)C)cc1)C(C)C [Compound 31]
pEC50 (SST2): < 6.00
pEC50 [1]: 5.77
pEC50 ([2]; 2 h): 5.98

CC[C@H](C)[C@@H]([C@@H](CC(=O)N1CCC[C@H]1[C@H](OC)[C@@H](C)C(=O)N[C@H](C)[C@@H](O)c1ccccc1)OC)N(C)C(=O)[C@@H](NC(=O)[C@H](C(C)C)N(C)C(=O)OCc1ccc(NC(=O)[C@H](CCCNC(N)=O)NC(=O)[C@@H](NC(=O)CN2CCN(CC(=O)O)CCN(CC(=O)NCCNc3ncc(-c4cc(C)cc(F)c4)c(N4CCC(N)CC4)c3-c3nc4ccc(Cl)cc4[nH]3)CC2)C(C)C)cc1)C(C)C [Compound 33]
pEC50 (SST2): 7.46
pEC50 [1]: 9.20
pEC50 ([2]; 2 h): 6.56

CC[C@H](C)[C@@H]([C@@H](CC(=O)N1CCC[C@H]1[C@H](OC)[C@@H](C)C(=O)N[C@H](C)[C@@H](O)c1ccccc1)OC)N(C)C(=O)[C@@H](NC(=O)[C@H](C(C)C)N(C)C(=O)CNC(=O)[C@H](Cc1ccccc1)NC(=O)CNC(=O)CNC(=O)CCOCCC(=O)NCCNc1ncc(-c2cc(C)cc(F)c2)c(N2CCC(N)CC2)c1-c1nc2ccc(Cl)cc2[nH]1)C(C)C [Compound 34] (X1-GGFG[NMeV]V[Dil][Dolaproine]-X2)
EC50 (SST2): 21.8 nM
EC50 [1]: 0.16 nM
pEC50 [2, 3]: 5.50
